In patent US20240158740A1, “CELL CLUSTER PRODUCTION METHOD” (National University Corporation Tokyo Medical and Dental …, priority 2021, published 2024):

Assays:
Format in all cases: cell-based
[1] = test system: Human iPS cells (625A4) colonies; experiment: Differentiation marker analysis of cell cluster by immunocytostaining after Wnt signal-inhibiting culture step (Day 2); settings: cell cluster of Day 2
Description: Human iPS cells (625A4; Center for iPS Cell Research and Application (CiRA), Kyoto University) were cultured at 37° C. for 6 to 7 days under 5% CO2 in AK02N (Ajinomoto Co., Inc.) (10 cm dish; 8 ml, 24-well plate; 0.5 ml) to form iPS cell colonies of 500 to 700 μm in diameter. The obtained colonies were cultured at 37° C. for 2 days under 5% CO2 in Essential 8 medium (Gibco) (10 cm dish; 8 ml, 24-well plate; 0.5 ml) supplemented with BMP4 (80 ng/ml), VEGF (80 ng/ml), and IWP-2 (2 μM) (Days 0 to 2).
iPS cell colonies were formed as a control in the same manner as in [1] and [2]. Then, the obtained colonies were cultured at 37° C. for 2 days under 5% CO2 in Essential 8 medium (Gibco) (10 cm dish; 8 ml, 24-well plate; 0.5 ml) supplemented with BMP4 (80 ng/ml) and VEGF (80 ng/ml) (Days 0 to 2).
After induction of differentiation in the step of Days 0 to 2 in [1] or [2], the medium was removed, and the cells were washed once with PBS(−) (Gibco). Then, 4% paraformaldehyde was added at a volume of 500 μl/24 wells to the cells and left at room temperature for 15 minutes. Then, the cells were washed three times with PBS(−) and preserved overnight at 4° C. Then, PROTEIN BLOCK SERUM-FREE blocking solution [DAKO, X909] was added at a volume of 500 μl/24 wells to the cells and left at room temperature for 60 minutes for blocking. Then, a primary antibody ( 1/100 Anti-GATA6 (Abcam plc, ab22600), 1/50 Anti-Brachyury T (R&D Systems, Inc., AF2085), 1/400 Anti-Sox2 (CST, 3579P2), 1/100 Anti-CDX2 (R&D Systems, Inc., MAB3665), and 1/50 Anti-AP-2a (Santa Cruz Biotechnology Inc., sc-12726)) against the target antigen was added to a 1% blocking solution in PBS(−). The primary antibody solution was added at a volume of 500 μl/24 wells and left standing at room temperature for 60 minutes or overnight at 4° C. Subsequently, the cells were washed three times with PBS(−). […] The processing of the obtained images and quantitative analysis were carried out using image analysis software “Fiji”.

[2] = test system: Human iPS cells (625A4) derived cell population; experiment: Differentiation marker analysis of cell population by immunocytostaining (Brachyury, CD34; Day 6); settings: cell cluster obtained with CHIR99021 2 μM (Days 0 to 2), further differentiated; cell population of Day 6
Description: Following the preparation of human yolk sac mesoderm cells in [1], the medium was replaced with Essential 6 medium (Gibco) (10 cm dish; 8 ml) supplemented with VEGF (80 ng/ml), FGF2 (25 ng/ml), SCF (50 ng/ml), and SB431542 (2 μM), and hemangioblasts were induced by further culture at 37° C. for 2 days under 5% CO2. Then, the medium was replaced with Stempro-34 SFM (Gibco) (10 cm dish; 8 ml) supplemented with VEGF (80 ng/ml), SCF (50 ng/ml), Flt-3L (50 ng/ml), IL-3 (50 ng/ml), IL-6 (50 ng/ml), and TPO (5 ng/ml), and the cells were cultured at 37° C. for 2 days under 5% CO2. Then, the medium was replaced with a medium of the composition described above except for VEGF, and CD34-positive and CD32-positive vitelline venous hemogenic endothelial cells were induced by culture at 37° C. for 2 days under 5% CO2. After induction of differentiation of the step of Days 4 to 6 in [4], immunocytostaining was performed by the same procedures as in [3] except that the primary antibody used was changed to 1/50 Anti-CD34 (Abcam plc, ab81289).

[3] = test system: Human iPS cells (625A4) colonies; experiment: Differentiation marker analysis of cell cluster by immunocytostaining after Wnt signal-activating culture step (Day 2)
Description: Human iPS cells (625A4; Center for iPS Cell Research and Application (CiRA), Kyoto University) were cultured at 37° C. for 6 to 7 days under 5% CO2 in AK02N (Ajinomoto Co., Inc.) (10 cm dish; 8 ml, 24-well plate; 0.5 ml) to form iPS cell colonies of 500 to 700 μm in diameter. The obtained colonies were cultured at 37° C. for 2 days under 5% CO2 in Essential 8 medium (Gibco) (10 cm dish; 8 ml, 24-well plate; 0.5 ml) supplemented with BMP4 (80 ng/ml), VEGF (80 ng/ml), and CHIR99021 (2 μM) (Days 0 to 2). iPS cell colonies were formed as a control in the same manner as in [1] and [2]. Then, the obtained colonies were cultured at 37° C. for 2 days under 5% CO2 in Essential 8 medium (Gibco) (10 cm dish; 8 ml, 24-well plate; 0.5 ml) supplemented with BMP4 (80 ng/ml) and VEGF (80 ng/ml) (Days 0 to 2). After induction of differentiation in the step of Days 0 to 2 in [1] or [2], the medium was removed, and the cells were washed once with PBS(−) (Gibco). Then, 4% paraformaldehyde was added at a volume of 500 μl/24 wells to the cells and left at room temperature for 15 minutes. Then, the cells were washed three times with PBS(−) and preserved overnight at 4° C. Then, PROTEIN BLOCK SERUM-FREE blocking solution [DAKO, X909] was added at a volume of 500 μl/24 wells to the cells and left at room temperature for 60 minutes for blocking. Then, a primary antibody ( 1/100 Anti-GATA6 (Abcam plc, ab22600), 1/50 Anti-Brachyury T (R&D Systems, Inc., AF2085), 1/400 Anti-Sox2 (CST, 3579P2), 1/100 Anti-CDX2 (R&D Systems, Inc., MAB3665), and 1/50 Anti-AP-2a (Santa Cruz Biotechnology Inc., sc-12726)) against the target antigen was added to a 1% blocking solution in PBS(−). The primary antibody solution was added at a volume of 500 μl/24 wells and left standing at room temperature for 60 minutes or overnight at 4° C. Subsequently, the cells were washed three times with PBS(−). […] The processing of the obtained images and quantitative analysis were carried out using image analysis software “Fiji”.

[4] = test system: Human iPS cells (625A4) derived cell population; experiment: Differentiation marker analysis using flow cytometry (CD34, CD32; Day 8); settings: cell cluster obtained with CHIR99021 2 μM (Days 0 to 2), further differentiated; cell population of Day 8; compared with control (−)
Description: Following the preparation of human yolk sac mesoderm cells in [1], the medium was replaced with Essential 6 medium (Gibco) (10 cm dish; 8 ml) supplemented with VEGF (80 ng/ml), FGF2 (25 ng/ml), SCF (50 ng/ml), and SB431542 (2 μM), and hemangioblasts were induced by further culture at 37° C. for 2 days under 5% CO2. Then, the medium was replaced with Stempro-34 SFM (Gibco) (10 cm dish; 8 ml) supplemented with VEGF (80 ng/ml), SCF (50 ng/ml), Flt-3L (50 ng/ml), IL-3 (50 ng/ml), IL-6 (50 ng/ml), and TPO (5 ng/ml), and the cells were cultured at 37° C. for 2 days under 5% CO2. Then, the medium was replaced with a medium of the composition described above except for VEGF, and CD34-positive and CD32-positive vitelline venous hemogenic endothelial cells were induced by culture at 37° C. for 2 days under 5% CO2. After induction of differentiation of vitelline venous hemogenic endothelial cells by the step of Days 6 to 8 in [4], the medium was removed, and the cells were washed twice with PBS(−) (Gibco). Then, TrypLE Express (Gibco) was added at a volume of 3 mL/dish and left at 37° C. for 15 minutes. Then, the cells were recovered into a 15 mL tube while dissociated by pipetting with P1000 micropipette. […] The differentiation markers were analyzed by BD LSRFortessa flow cytometry using the obtained antibody-stained cell suspension. Data obtained from flow cytometry was analyzed using FlowJo.

Compound | GATA6-positive cells in an outer edge part of the cell cluster ([1]; 2 μM, Days 0 to 2, compared with +CHIR) | Enrichment of CDX2-positive and TFAP2A-positive AECs in the cell cluster ([1]; IWP-2 2 μM with BMP4 and VEGF in Essential 8, Days 0 to 2, compared with no addition (−)) | GATA6 status of the CDX2-positive region (+IWP-2) ([1]; IWP-2 2 μM, Days 0 to 2) | Appearance of CD34-positive vascular endothelial progenitor cells from YSM region in the outer edge part [2] | Enrichment of Brachyury-negative, GATA6-positive, and FOXF1-positive YSMCs in the cell cluster ([3]; CHIR99021 2 μM with BMP4 and VEGF in Essential 8, Days 0 to 2, cell cluster of Day 2, compared with no addition (−)) | Morphology of the cell cluster under an optical microscope versus cell cluster obtained by a conventional method ([3]; CHIR99021 2 μM, 2 days after the start of culture) | GATA6 status of the CDX2-negative region (+CHIR) ([3]; CHIR99021 2 μM, Days 0 to 2, cell cluster of Day 2) | CD34-positive and CD32-positive vitelline venous hemogenic endothelial cells produced [4]
Cc1ccc2nc(NC(=O)CSc3nc4c(c(=O)n3-c3ccccc3)SCC4)sc2c1 [IWP-2] | small number of GATA6-positive cells | enriched | GATA6-negative |  |  |  |  | 
Cc1c[nH]c(-c2cnc(NCCNc3ccc(C#N)cn3)nc2-c2ccc(Cl)cc2Cl)n1 [CHIR99021] |  |  |  | Rich CD34-positive vascular endothelial progenitor cells were confirmed to appear | enriched | differ morphologically | GATA6-positive | more
